Data taken from PubChem BioAssay (NCI).
Several values for one entry are separate records, joined by “and”; a condition that tells them apart may be missing. Identical values can stand only once.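 Briefly, cells in 96-well plates were exposed to five compound concentrations for 48 h, and endpoints were estimated by linear interpolation. GI50 = concentration required for 50% inhibition of growth. TGI: total growth inhibition.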

How the values were obtained:
Test in all cases: inhibition of tumour cell growth, NCI panel, 48 h
ACHN renal = test system: ACHN renal
RXF 393 renal = test system: RXF 393 renal
SW-620 colon = test system: SW-620 colon
HT29 colon = test system: HT29 colon
OVCAR-5 ovarian = test system: OVCAR-5 ovarian
K-562 leukemia = test system: K-562 leukemia
M14 melanoma = test system: M14 melanoma
NCI-H460 lung = test system: NCI-H460 lung
OVCAR-8 ovarian = test system: OVCAR-8 ovarian
HCT-15 colon = test system: HCT-15 colon

## COc1cccc(C2C(C#N)=C(N)Oc3c2ccc2ccccc32)c1 (centres undefined)
ACHN renal
  GI50: < 0.01 µM
  TGI: 13.4 µM
RXF 393 renal
  GI50: < 0.0161 µM
  TGI: 0.975 µM
SW-620 colon
  GI50: < 0.015 µM
  TGI: 17.8 µM
HT29 colon
  GI50: 0.0926 µM
  TGI: 4.71 µM
OVCAR-5 ovarian
  GI50: 0.0801 µM
  TGI: 19.8 µM
K-562 leukemia
  GI50: < 0.01 µM
  TGI: > 44 µM
M14 melanoma
  GI50: < 0.012 µM
  TGI: 13.3 µM
NCI-H460 lung
  GI50: 0.0246 µM
  TGI: 1.18 µM
OVCAR-8 ovarian
  GI50: 0.0346 µM
  TGI: 19.2 µM
HCT-15 colon
  GI50: < 0.01 µM
  TGI: 10.2 µM

## O=C1CCC(N2C(=O)c3cccc(NCCCC4CCN(CCNC(=O)c5cc6c(o5)C(=O)c5ccccc5C6=O)CC4)c3C2=O)C(=O)N1 (centres undefined)
ACHN renal
  GI50: 1.29 µM
  TGI: 2.56 µM
RXF 393 renal
  GI50: 1.03 µM
  TGI: 3.08 µM
SW-620 colon
  GI50: 0.45 µM
  TGI: 1.86 µM
HT29 colon
  GI50: 0.823 µM
  TGI: 8.81 µM
OVCAR-5 ovarian
  GI50: 0.653 µM
  TGI: 2 µM
K-562 leukemia
  GI50: 0.654 µM
  TGI: 6.3 µM
M14 melanoma
  GI50: 0.161 µM
  TGI: 0.309 µM
NCI-H460 lung
  GI50: 0.249 µM
  TGI: 0.609 µM
OVCAR-8 ovarian
  GI50: 1.41 µM
  TGI: 7.18 µM
HCT-15 colon
  GI50: 0.825 µM
  TGI: 2.41 µM

## CCN(CC)C(=S)SSC(=S)N(CC)CC
ACHN renal
  GI50: 19 µM and 18 µM
  TGI: 36.9 µM and 34.4 µM
RXF 393 renal
  GI50: 15.8 µM and 17.3 µM
  TGI: 32.4 µM and 32.9 µM
SW-620 colon
  GI50: 16.1 µM and 17 µM
  TGI: 30.4 µM and 32.6 µM
HT29 colon
  GI50: 16.5 µM and 16.8 µM
  TGI: 31.5 µM and 35.5 µM
OVCAR-5 ovarian
  GI50: 35.4 µM and 17.9 µM
  TGI: > 56 µM and 32.6 µM
K-562 leukemia
  GI50: 25.2 µM and 19.6 µM
  TGI: 51.5 µM and 47.3 µM
M14 melanoma
  GI50: 12.1 µM and 12.6 µM
  TGI: 28.9 µM and 28.1 µM
NCI-H460 lung
  GI50: 23.8 µM and 17.4 µM
  TGI: 84.2 µM and 66.4 µM
OVCAR-8 ovarian
  GI50: 18.8 µM and 15.8 µM
  TGI: 50.7 µM and 33.5 µM
HCT-15 colon
  GI50: 20.1 µM and 20.9 µM
  TGI: > 56.6 µM and 59.8 µM

## O=C1CSC(c2ccccc2O)N1c1nnc(Cn2ccnc2)o1 (centres undefined)
ACHN renal
  GI50: 4.96 µM
  TGI: > 100 µM
RXF 393 renal
  GI50: 22.7 µM
  TGI: > 100 µM
SW-620 colon
  GI50: 5.14 µM
  TGI: 32.4 µM
HT29 colon
  GI50: 5 µM
  TGI: > 100 µM
OVCAR-5 ovarian
  GI50: 22.1 µM
  TGI: 50.7 µM
K-562 leukemia
  GI50: 4.36 µM
  TGI: > 100 µM
M14 melanoma
  GI50: 7.97 µM
  TGI: 43.9 µM
NCI-H460 lung
  GI50: 4.76 µM
  TGI: > 100 µM
OVCAR-8 ovarian
  GI50: 17.8 µM
  TGI: > 100 µM
HCT-15 colon
  GI50: 3.04 µM
  TGI: > 100 µM

## COCCOCOC(C)(C)[C@H](CCOC(C)=O)O[Si](c1ccccc1)(c1ccccc1)C(C)(C)C
ACHN renal
  TGI: 51.1 µM
RXF 393 renal
  TGI: 45.7 µM
SW-620 colon
  TGI: > 100 µM
HT29 colon
  TGI: 28.5 µM
OVCAR-5 ovarian
  TGI: > 100 µM
K-562 leukemia
  TGI: 28.8 µM
M14 melanoma
  TGI: 49.4 µM
NCI-H460 lung
  TGI: 24.1 µM
OVCAR-8 ovarian
  TGI: 75.2 µM
HCT-15 colon
  TGI: > 100 µM

## O=c1cccc(C#CC#CCCCO)o1
ACHN renal
  GI50: 12.4 µM
  TGI: 24.9 µM
RXF 393 renal
  GI50: 3.27 µM
  TGI: 11.5 µM
SW-620 colon
  GI50: 2.67 µM
HT29 colon
  GI50: 4.66 µM
  TGI: > 100 µM
OVCAR-5 ovarian
  GI50: 5.57 µM
  TGI: 11.6 µM
K-562 leukemia
  GI50: 4.08 µM
  TGI: > 100 µM
M14 melanoma
  GI50: 4.76 µM
  TGI: 21.5 µM
NCI-H460 lung
  GI50: 9.55 µM
  TGI: 33.6 µM
OVCAR-8 ovarian
  GI50: 4.33 µM
  TGI: > 35.8 µM
HCT-15 colon
  GI50: 2.11 µM
  TGI: 5.3 µM

## Cc1ccc(Sc2oc(-c3ccc(C)cc3)nc2[P+](c2ccccc2)(c2ccccc2)c2ccccc2)cc1
ACHN renal
  GI50: 0.311 µM
  TGI: 1.16 µM
RXF 393 renal
  GI50: 0.316 µM
  TGI: 1.33 µM
SW-620 colon
  GI50: 0.338 µM
  TGI: 1.32 µM
HT29 colon
  GI50: 0.294 µM
  TGI: 1.15 µM
OVCAR-5 ovarian
  GI50: 0.416 µM
  TGI: 1.59 µM
K-562 leukemia
  GI50: 0.302 µM
  TGI: 1.52 µM
M14 melanoma
  GI50: 0.403 µM
  TGI: 1.57 µM
NCI-H460 lung
  GI50: 0.312 µM
  TGI: 1.12 µM
OVCAR-8 ovarian
  GI50: 0.345 µM
  TGI: 1.65 µM
HCT-15 colon
  GI50: 0.31 µM
  TGI: 1.26 µM

## C=CCCCOC1[C@H](OCc2ccccc2)C(OCc2ccccc2)C(OC)O[C@@H]1CNC(=O)c1cccc(I)c1 (some centres undefined)
ACHN renal
  GI50: 5.76 µM
  TGI: > 100 µM
RXF 393 renal
  GI50: 3.91 µM
  TGI: > 100 µM
SW-620 colon
  GI50: 4.62 µM
  TGI: > 100 µM
HT29 colon
  GI50: 4.54 µM
  TGI: > 100 µM
OVCAR-5 ovarian
  GI50: > 100 µM
  TGI: > 100 µM
K-562 leukemia
  GI50: 2.7 µM
  TGI: > 100 µM
M14 melanoma
  GI50: 60.2 µM
  TGI: > 100 µM
NCI-H460 lung
  GI50: 2.91 µM
  TGI: 8.64 µM
OVCAR-8 ovarian
  GI50: 26 µM
  TGI: > 100 µM
HCT-15 colon
  GI50: 3.55 µM
  TGI: > 100 µM

## O=[N+]([O-])c1ccc2c(Nc3ccccc3-c3ccccc3Nc3c4ccccc4nc4cc([N+](=O)[O-])ccc34)c3ccccc3nc2c1
ACHN renal
  TGI: 49 µM
RXF 393 renal
  TGI: 17.4 µM
SW-620 colon
  TGI: 11.1 µM
HT29 colon
  TGI: 26.7 µM
OVCAR-5 ovarian
  TGI: 56.8 µM
K-562 leukemia
  TGI: 15.5 µM
M14 melanoma
  TGI: 18.4 µM
NCI-H460 lung
  TGI: 15.3 µM
OVCAR-8 ovarian
  TGI: 39.9 µM
HCT-15 colon
  TGI: 17.6 µM

## O=C(NN1C(=O)CSC1c1ccc(F)cc1)C(O)c1ccccc1 (centres undefined)
ACHN renal
  GI50: 91.5 µM
  TGI: > 100 µM
RXF 393 renal
  GI50: > 100 µM
  TGI: > 100 µM
SW-620 colon
  GI50: > 100 µM
  TGI: > 100 µM
HT29 colon
  GI50: > 100 µM
  TGI: > 100 µM
OVCAR-5 ovarian
  GI50: > 100 µM
  TGI: > 100 µM
K-562 leukemia
  GI50: 43.3 µM
  TGI: > 100 µM
M14 melanoma
  GI50: > 100 µM
  TGI: > 100 µM
NCI-H460 lung
  GI50: 81.8 µM
  TGI: > 100 µM
OVCAR-8 ovarian
  GI50: > 100 µM
  TGI: > 100 µM
HCT-15 colon
  GI50: > 100 µM
  TGI: > 100 µM

## COc1cccc(CC(C)=C(c2ccc(OCCCN(C)C)cc2)c2ccc(OCCCN(C)C)cc2)c1
ACHN renal
  GI50: 0.501 µM
  TGI: 0.991 µM
RXF 393 renal
  GI50: 0.597 µM
  TGI: 2.57 µM
SW-620 colon
  GI50: 0.434 µM
  TGI: 0.867 µM
HT29 colon
  GI50: 0.443 µM
  TGI: 0.912 µM
OVCAR-5 ovarian
  GI50: 0.707 µM
  TGI: 2.06 µM
K-562 leukemia
  GI50: 0.484 µM
  TGI: 1.16 µM
M14 melanoma
  GI50: 0.461 µM
  TGI: 0.864 µM
NCI-H460 lung
  GI50: 0.484 µM
  TGI: 0.94 µM
OVCAR-8 ovarian
  GI50: 0.645 µM
  TGI: 1.8 µM
HCT-15 colon
  GI50: 0.478 µM
  TGI: 0.95 µM

## C=C1CC[C@@H]2[C@](C)(COC(C)=O)[C@H](OC(C)=O)CC[C@@]2(C)[C@@H]1CC(Nc1ccc(S(=O)(=O)Nc2nccs2)cc1)C1=CCOC1=O (some centres undefined)
ACHN renal
  GI50: 5.99 µM
  TGI: 18.9 µM
RXF 393 renal
  GI50: 2.36 µM
  TGI: 4.74 µM
SW-620 colon
  GI50: 1.85 µM
  TGI: 3.98 µM
HT29 colon
  GI50: 2.17 µM
  TGI: 4.7 µM
OVCAR-5 ovarian
  GI50: 4.82 µM
  TGI: 17.6 µM
K-562 leukemia
  GI50: 3.6 µM
  TGI: 29 µM
M14 melanoma
  GI50: 2.83 µM
  TGI: 10.5 µM
NCI-H460 lung
  GI50: 10.7 µM
  TGI: 25.3 µM
OVCAR-8 ovarian
  GI50: 3.14 µM
  TGI: 10.8 µM
HCT-15 colon
  GI50: 1.73 µM
  TGI: 4.12 µM

## COc1ccc(Oc2ccccc2NC(=O)CNC(=O)c2cccc3ccccc23)cc1
ACHN renal
  GI50: 1.53 µM
  TGI: > 25 µM
RXF 393 renal
  GI50: 0.494 µM
  TGI: > 25 µM
SW-620 colon
  GI50: 0.678 µM
  TGI: > 25 µM
HT29 colon
  GI50: 0.576 µM
  TGI: 19.4 µM
OVCAR-5 ovarian
  GI50: 1.98 µM
  TGI: > 25 µM
K-562 leukemia
  GI50: 0.143 µM
  TGI: > 25 µM
M14 melanoma
  GI50: 0.545 µM
  TGI: > 25 µM
NCI-H460 lung
  GI50: 0.859 µM
  TGI: > 25 µM
OVCAR-8 ovarian
  GI50: 1.15 µM
  TGI: > 25 µM
HCT-15 colon
  GI50: 0.59 µM
  TGI: > 25 µM
